Assay results from US20250163056A1, “NONMUSCLE MYOSIN II INHIBITORS” (The University of Florida Research Foundation, Inc., priority 2018, published 2025).
Like-named read-outs stand apart in the source and are kept apart here.

Legend:
[1] = tested on: rodent behaviors; details: systemically administered
[2] = molecular target: nonmuscle myosin II (Chlorocebus sabaeus, UniProt A0A0D9RDH4); assay: Cytokinesis cell-based assay of nonmuscle myosin II function in COS7 cells; details: read-out: NMII EC50
Chain of nonmuscle myosin II (A0A0D9RDH4 1-1976): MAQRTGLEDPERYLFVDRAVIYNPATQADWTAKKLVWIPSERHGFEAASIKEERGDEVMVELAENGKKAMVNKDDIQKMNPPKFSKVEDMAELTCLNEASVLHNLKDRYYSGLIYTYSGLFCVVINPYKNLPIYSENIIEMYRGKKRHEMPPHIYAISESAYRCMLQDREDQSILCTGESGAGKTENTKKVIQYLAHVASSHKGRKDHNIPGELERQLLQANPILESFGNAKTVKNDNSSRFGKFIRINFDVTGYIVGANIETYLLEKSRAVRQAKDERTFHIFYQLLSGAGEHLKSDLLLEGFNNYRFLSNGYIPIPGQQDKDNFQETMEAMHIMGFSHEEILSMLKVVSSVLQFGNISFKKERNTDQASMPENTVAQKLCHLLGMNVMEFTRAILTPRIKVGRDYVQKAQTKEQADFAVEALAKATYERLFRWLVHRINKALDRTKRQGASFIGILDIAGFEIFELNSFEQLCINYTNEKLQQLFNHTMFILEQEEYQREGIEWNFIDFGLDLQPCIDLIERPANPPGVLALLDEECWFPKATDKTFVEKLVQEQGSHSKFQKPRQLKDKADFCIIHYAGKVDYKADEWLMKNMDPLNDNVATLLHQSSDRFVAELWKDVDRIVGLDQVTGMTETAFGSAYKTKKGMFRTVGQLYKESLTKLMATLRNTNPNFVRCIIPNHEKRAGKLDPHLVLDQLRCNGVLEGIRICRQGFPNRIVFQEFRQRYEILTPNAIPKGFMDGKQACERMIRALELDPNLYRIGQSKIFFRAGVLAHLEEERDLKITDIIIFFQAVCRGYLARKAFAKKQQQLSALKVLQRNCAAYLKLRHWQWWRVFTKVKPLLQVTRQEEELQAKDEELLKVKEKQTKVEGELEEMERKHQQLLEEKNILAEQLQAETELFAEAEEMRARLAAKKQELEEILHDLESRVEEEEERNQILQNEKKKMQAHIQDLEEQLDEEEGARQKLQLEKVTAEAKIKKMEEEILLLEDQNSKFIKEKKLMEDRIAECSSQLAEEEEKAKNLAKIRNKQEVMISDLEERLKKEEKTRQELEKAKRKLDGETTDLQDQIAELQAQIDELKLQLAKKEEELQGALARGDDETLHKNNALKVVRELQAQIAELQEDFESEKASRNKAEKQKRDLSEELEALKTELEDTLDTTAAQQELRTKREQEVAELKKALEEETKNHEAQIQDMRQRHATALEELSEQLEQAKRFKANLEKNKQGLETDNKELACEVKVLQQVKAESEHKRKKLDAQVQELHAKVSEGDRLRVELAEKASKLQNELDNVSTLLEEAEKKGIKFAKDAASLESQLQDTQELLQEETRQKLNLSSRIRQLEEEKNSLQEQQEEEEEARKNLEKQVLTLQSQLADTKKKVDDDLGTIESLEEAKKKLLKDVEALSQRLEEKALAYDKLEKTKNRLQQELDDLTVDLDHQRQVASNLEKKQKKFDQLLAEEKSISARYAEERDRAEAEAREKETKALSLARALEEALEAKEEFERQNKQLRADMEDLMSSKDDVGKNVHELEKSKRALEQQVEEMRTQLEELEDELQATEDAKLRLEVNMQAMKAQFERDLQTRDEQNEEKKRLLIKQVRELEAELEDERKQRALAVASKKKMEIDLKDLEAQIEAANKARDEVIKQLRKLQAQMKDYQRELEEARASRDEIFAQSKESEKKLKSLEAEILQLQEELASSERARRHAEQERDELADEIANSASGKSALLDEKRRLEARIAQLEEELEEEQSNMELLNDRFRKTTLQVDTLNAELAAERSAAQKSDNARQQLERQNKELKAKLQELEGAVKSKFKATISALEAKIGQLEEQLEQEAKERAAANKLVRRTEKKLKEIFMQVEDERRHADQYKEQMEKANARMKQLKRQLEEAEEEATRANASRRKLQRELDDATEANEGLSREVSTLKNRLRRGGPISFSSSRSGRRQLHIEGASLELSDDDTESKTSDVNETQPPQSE
Description: Cytokinesis is a cell-based assay to assess nonmuscle myosin II function, performed using COS7 cells. The assay is run in a 96 well plate, with 2,000 cells plated per well. Total incubation time is 48 hours, with 24 hours of treatment with the compound of interest. Prior to treatment with small molecules, a two-fold dilution series of compound solutions is prepared in DMSO. Starting concentrations are determined based on compound solubility. Compound solutions are further diluted in DMEM medium to a final DMSO concentration of 2% (50-fold dilution). Subsequently, 100 μl diluted solution is transferred to each well of the plate containing 100 μl of cell culture (achieving 1% final DMSO concentration). All measurements are carried out in triplicate. Cells are stained by fluorescein diacetate (6 μM), a cell viability dye, the cell-permeant Hoescht33342 (10 μM) and the membrane-impermeant propidium iodide (4 μM) to label all nuclei and those belonging to dead cells, respectively. Dye solutions are replaced by fresh media after 10 minutes of incubation. An INCell Analyzer 6000 is used for imaging. […] Cytotoxicity is also assayed and quantified as the ratio of dead nuclei to total nuclei. […] Half maximal effective concentration (EC50) is determined by fitting the 6-point dose-response data to the Hill equation.

[3] = molecular target: Bovine cardiac myosin (Bos taurus (Bovine), UniProt Q9BE39); assay: Cardiac muscle myosin II actin-activated ATPase assay (NADH-coupled); assay type: biochemical; details: for CMMII/NMII Ratio: cardiac Ki relative to NMII EC50; for Ratio CMMII:NMII Ki/EC50: cardiac myosin II Ki over nonmuscle myosin II EC50
Chain of Bovine cardiac myosin (Q9BE39 whole entry): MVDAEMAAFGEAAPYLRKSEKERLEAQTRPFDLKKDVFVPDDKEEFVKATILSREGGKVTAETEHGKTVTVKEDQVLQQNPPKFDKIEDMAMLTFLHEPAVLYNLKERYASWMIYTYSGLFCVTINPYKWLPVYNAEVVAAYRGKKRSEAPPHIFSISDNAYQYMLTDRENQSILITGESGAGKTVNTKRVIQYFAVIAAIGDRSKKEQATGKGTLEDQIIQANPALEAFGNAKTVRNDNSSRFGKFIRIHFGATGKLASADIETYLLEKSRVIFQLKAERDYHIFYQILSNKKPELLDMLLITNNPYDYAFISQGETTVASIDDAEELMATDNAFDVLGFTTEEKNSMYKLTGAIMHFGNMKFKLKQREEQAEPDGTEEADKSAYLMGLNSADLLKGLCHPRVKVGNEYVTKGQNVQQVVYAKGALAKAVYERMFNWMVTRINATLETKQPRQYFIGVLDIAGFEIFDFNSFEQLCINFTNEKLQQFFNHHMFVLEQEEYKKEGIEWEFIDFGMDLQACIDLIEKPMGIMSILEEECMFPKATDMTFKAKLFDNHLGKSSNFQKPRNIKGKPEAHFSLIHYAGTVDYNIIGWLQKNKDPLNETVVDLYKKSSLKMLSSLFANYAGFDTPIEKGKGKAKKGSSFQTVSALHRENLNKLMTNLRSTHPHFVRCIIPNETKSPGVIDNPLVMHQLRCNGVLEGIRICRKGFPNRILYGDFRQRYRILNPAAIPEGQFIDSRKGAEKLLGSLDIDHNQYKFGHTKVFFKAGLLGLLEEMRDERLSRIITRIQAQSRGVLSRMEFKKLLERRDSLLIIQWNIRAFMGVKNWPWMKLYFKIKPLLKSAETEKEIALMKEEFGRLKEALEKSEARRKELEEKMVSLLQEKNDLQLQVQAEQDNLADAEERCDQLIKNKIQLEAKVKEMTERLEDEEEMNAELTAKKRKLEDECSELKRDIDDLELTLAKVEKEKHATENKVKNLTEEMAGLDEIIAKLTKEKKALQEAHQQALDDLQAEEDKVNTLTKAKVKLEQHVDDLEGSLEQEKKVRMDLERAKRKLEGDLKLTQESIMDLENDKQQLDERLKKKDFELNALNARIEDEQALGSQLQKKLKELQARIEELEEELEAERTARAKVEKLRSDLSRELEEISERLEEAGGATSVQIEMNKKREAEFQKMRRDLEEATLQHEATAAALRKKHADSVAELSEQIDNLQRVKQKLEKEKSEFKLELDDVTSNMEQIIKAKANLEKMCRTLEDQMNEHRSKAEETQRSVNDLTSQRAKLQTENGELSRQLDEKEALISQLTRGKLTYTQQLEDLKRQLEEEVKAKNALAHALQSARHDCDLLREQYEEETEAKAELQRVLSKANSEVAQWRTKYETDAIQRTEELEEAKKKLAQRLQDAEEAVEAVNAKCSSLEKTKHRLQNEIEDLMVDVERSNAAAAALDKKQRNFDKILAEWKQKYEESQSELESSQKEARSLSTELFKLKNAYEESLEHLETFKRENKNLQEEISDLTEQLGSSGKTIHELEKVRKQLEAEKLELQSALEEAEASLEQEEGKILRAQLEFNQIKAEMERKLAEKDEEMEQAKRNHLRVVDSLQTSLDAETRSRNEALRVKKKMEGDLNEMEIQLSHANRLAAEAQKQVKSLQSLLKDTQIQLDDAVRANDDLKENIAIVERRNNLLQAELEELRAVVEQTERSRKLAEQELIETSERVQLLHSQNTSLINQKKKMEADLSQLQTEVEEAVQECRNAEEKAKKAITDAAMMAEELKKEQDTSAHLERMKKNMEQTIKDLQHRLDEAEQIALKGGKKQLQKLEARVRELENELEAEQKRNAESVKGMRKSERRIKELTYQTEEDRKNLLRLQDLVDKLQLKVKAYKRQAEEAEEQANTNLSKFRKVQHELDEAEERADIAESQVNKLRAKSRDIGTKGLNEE
Chain of Bovine cardiac myosin (P85100 whole entry partner): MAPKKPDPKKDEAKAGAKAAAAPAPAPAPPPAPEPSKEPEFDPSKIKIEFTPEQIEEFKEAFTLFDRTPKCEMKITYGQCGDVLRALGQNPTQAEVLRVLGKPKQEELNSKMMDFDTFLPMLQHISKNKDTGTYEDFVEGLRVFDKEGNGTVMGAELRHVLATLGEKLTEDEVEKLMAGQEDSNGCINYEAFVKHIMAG
Chain of Bovine cardiac myosin (Q3SZE5 whole entry partner): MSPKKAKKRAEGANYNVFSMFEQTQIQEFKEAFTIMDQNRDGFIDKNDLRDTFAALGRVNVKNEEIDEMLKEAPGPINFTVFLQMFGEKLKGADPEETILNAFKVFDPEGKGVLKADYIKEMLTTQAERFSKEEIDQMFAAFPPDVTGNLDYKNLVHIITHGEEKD
In short: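 NADH-coupled (PK/LDH) assay at 25° C: 300 nM bovine cardiac myosin, 10 μM rabbit F-actin, 1 mM ATP, 1 mM PEP, 220 μM NADH, MOPS pH 7.0, 0.5% DMSO. NADH fluorescence was followed for 30 min; Ki values came from 16-point triplicate data (top 50 uM) fitted to a quadratic one-to-one binding model.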

[4] = tested on: hiPS cardiomyocytes (Cor.4U CMs); assay: Cardiac safety assay 1: beating parameters of cardiomyocytes (xCELLigence RTCA Cardio); assay type: cell-based, human; details: hiPS-derived cardiomyocytes
Description: The spontaneous contractions of cardiomyocytes (CMs) is measured label-free in real time using the ACEA xCELLigence RTCA Cardio instrument. All measurements are performed at 37° C. in a cell culture incubator, allowing for spontaneous beating of CMs at physiological conditions. Cor.4U CMs are seeded at 3×10^4 cells/well in 180 μl/well maintenance medium. Prior to seeding, a background impedance measurement (plate plus medium) is performed. The contraction of CMs involves cyclic modulation of cell morphology and adhesion inducing a delta change in impedance. From the cyclic changes in impedance a beating frequency, amplitude and effects on beating pattern can be calculated. Time point “0” (baseline) is recorded 10× for 20 seconds at 1 minute intervals. Thereafter, compounds and control (0.1% DMSO) are added to the wells and effects are measured 30 minutes later. Vehicle control is 0.1% DMSO and positive control is 100 nM isoproterenol. Compounds are tested at 0.1, 0.3, 1.0 and 3.0 uM. Data is collected at 5, 10, 15, 20 and 30 minutes, and 1, 4, 6, 12 and 24 hours post-incubation.

[5] = molecular target: Rabbit skeletal myosin; assay: Skeletal muscle myosin II actin-activated ATPase assay; assay type: biochemical; details: 20 nM skeletal muscle myosin II; read-out: SKMMII KI
In short: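 NADH-coupled (PK/LDH) actin-activated ATPase at 25 °C with 20 nM rabbit skeletal myosin II, 10 μM F-actin, 1 mM ATP, 1 mM PEP, 220 μM NADH in MOPS pH 7.0, MgCl2, EGTA, BSA, DTT, 0.5% DMSO. NADH fluorescence followed 30 min; inhibitory constants from 16-point triplicate curves (top 50 uM), quadratic one-to-one fit.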

[6] = Photostability, percentage remaining undegraded under illumination or in the dark; details: for Photostability 4 hours: percentage remaining undegraded after 4 hours illumination; for Photostability 24 hours: percentage remaining undegraded after 24 hours illumination; for Photostability Dark (24 h): percentage remaining undegraded in the dark
[7] = cardiac muscle myosin II, read-out: CMMII Ki
[8] = 300 nM cardiac myosin, 10 μM actin, 25° C., read-out: CMMII KI

SMILES | effect in a broad panel of rodent behaviors [1] | EC50 [2] [µM] | CMMII/NMII Ratio [3] | Ki [3, 7] [µM] | Change in amplitude at 1 uM @ 15 min [4] | Ki [5] [µM] | Photostability 4 hours [6] [%] | Photostability 24 hours [6] [%] | Photostability Dark (24 h) [6] [%] | Ki [3, 8] [µM] | Ratio CMMII:NMII Ki/EC50 [3] | Qualitative impact on contractility (e.g. Full = Complete inhibition of contraction) ([4]; 0.1 uM-1.0 uM) | Qualitative impact on contractility (e.g. Full = Complete inhibition of contraction) ([4]; 3.0 uM) | Photostability 4 hours (4 h) [%] | Photostability 24 hours (24 h) [%] | Photostability Dark (24 h) [%]
Cc1ccc2c(c1)C(=O)C1(O)CCN(c3ccccc3)C1=N2 (racemic) [racemic Blebb] | no effect |  |  |  |  |  |  |  |  |  |  |  |  |  |  | 
O=C1c2cc(Cl)ccc2N=C2N(c3ccccc3)CC[C@@]12O [BPN-0025002] |  | 2.6 | 0.76 | 1.97 | −38.9 ± 2.4% |  |  |  |  |  |  |  |  |  |  | 
Cc1ccc2c(c1)C(=O)[C@]1(O)CCN(c3cccc(Cl)c3)C1=N2 [BPN-0025059] |  |  | 9.25 | 47.2 | +1.1 ± 0.1% | 22 | 96.1 | 48.6 | >99 | 120 | 23.5 | 0.1 uM-1.0 uM: No effect; 3.0 uM: | Small effect |  |  | 
Cc1cccc(N2CC[C@@]3(O)C(=O)c4cc(C)ccc4N=C23)c1 [BPN-0025100] |  |  | 3.51 | 26.3 | −7.8 ± 1.3% | 9.7 | 82.8 | 4.7 | 99.0 | 48 | 6.4 | 0.1 uM-1.0 uM: No effect; 3.0 uM: | Small effect |  |  | 
Cc1cc(N2CC[C@@]3(O)C(=O)c4c(sc(C)c4C)NC23)ccc1C#N (stereo partly drawn) [BPN-0026886] |  |  |  |  |  | 4.2 |  |  |  | 19 | 7.0 |  |  | >99 | 98.5 | >99
Cc1cc2c(cc1C)C(=O)[C@]1(O)CCN(c3ccc4c(c3)OCCO4)C1=N2 [BPN-0028921] |  |  |  |  |  | 1 | 2.8 | 3.1 | 97.2 | 8.4 | 11.2 |  |  |  |  | 
Cc1cc2c(cc1C)C(=O)[C@]1(O)CCN(c3ccc4c(c3)NCCS4)C1=N2 [BPN-0028922] |  |  |  |  |  | 0.77 | 86.1 | 27.7 | 94.8 | 9.7 | 8.8 |  |  |  |  | 
Cc1cc2c(cc1C)C(=O)[C@]1(O)CCN(c3ccc4c(c3)CCCC4)C1=N2 [BPN-0028923] |  |  |  |  |  | 6 | 77.5 | 1 | 98.1 | 30 | 8.6 |  |  |  |  | 
Cc1cc2c(cc1C)C(=O)[C@]1(O)CCN(c3ccc4c(c3)OCCC4)C1=N2 [BPN-0028924] |  |  |  |  |  | 2.6 | 44.7 | <1 | 97.7 | 20 | 11.8 |  |  |  |  | 
Cc1cc2c(cc1C)C(=O)[C@]1(O)CCN(c3ccc4c(c3)NCCC4)C1=N2 [BPN-0028925] |  |  |  |  |  | 0.7 | 85.9 | 24.7 | 93.7 | 5.8 | 7.3 |  |  |  |  | 
